Results taken from US9238632B2, “3-cyanoanilinoalkylarylpiperazine derivative and use thereof in preparing drugs” (NHWA Pharma. Corporation, priority 2012, dated 2016).

Experiments:
[1] = test system: rat formalin induced pain model; assay: Rat formalin induced pain model (leg-raising times); format: in vivo, SD rats; conditions: formalin 1 h later, Mean ± SD, n=10
Source text: Rat formalin induced pain model is used to test in vivo analgesic effect of hydrochloride of compound III-10.
Rat formalin induced pain model is established by Dubuisson and Dennis in 1977. It can simulate some characteristics of human pains after damages, and its persistent tension pain is similar to common clinical chronic pains. Its experimental results have excellent repeatability, and it is considered to be universally accepted pain model which is more reliable than short-term mechanical or thermal stimulation models. It has been generally used in investigation and determination of pain mechanism, pain physiology and pharmacology, screening of the analgesic effects of drugs and evaluation of analgesic drugs.
Test compounds are prepared to relevant doses with 0.5% CMC-Na before use.
Formaldehyde solution: batch number HN20041109, HuaDong reagent industrial company. In experiment, it is diluted to 5% formaldehyde solution with 0.9% sodium chloride injection.
90 SD rats of weight (240-350 g), half female and half male, are fed for I week to adapt the environment, with 5 in each cage during feeding, the rats are fed under standard condition during experiments with free access to water and food.
90 SD rats of weight 240-350 g are randomly divided into 9 groups which are negative control group, model group, gabapentin group, high, median and low dosage group of each compound respectively, with 10 rats in each group, half female and half male. Relevant test compounds are given by intragastric administration, and 5% formalin (50 ul) is subcutaneously injected at the left rear foot in 1 h to model, formation of pichu indicates a successful modeling. 0.5% (weight percentage) CMC-Na is given by intragastric administration in negative control group, and normal saline (50 ul) is subcutaneously injected at the bottom of right rear foot in 1 h. After modeling, the leg-raising times in 1-2 minutes and 5-6 minutes are observed. The time period 10-60 minutes are divided into 5 minutes intervals, and the leg-raising times of the first minute of each interval (10-11, 15-16, 20-21, 25-26, 30-31, 35-36, 40-41, 45-46, 50-51, 55-56, 60-61) are observed.
Measuring index is expressed as mean±standard deviation (Mean±SD), comparison is analyzed with One-way ANOVA.

5-HT1A receptor = molecular target: T1, 5-HT1A receptor (Rattus norvegicus, UniProt P19327); assay: In vitro competitive binding test to 5-HT1A receptor ([3H]-8-OH-DPAT, rat cerebral cortex membranes); conditions: 10 μmol/L compound; hydrochloride salts; rat cerebral cortex membrane; unit (I %); read-out: 5-HT1A affinity [3H]-8-OH-DPAT (inhibition rate of radioligand binding)
T1 construct: The supernatant is discarded and the precipitate (membrane receptor) is stocked; from tissue; host or cells: SD rat cerebral cortex membranes
T1 sequence (P19327 1-422): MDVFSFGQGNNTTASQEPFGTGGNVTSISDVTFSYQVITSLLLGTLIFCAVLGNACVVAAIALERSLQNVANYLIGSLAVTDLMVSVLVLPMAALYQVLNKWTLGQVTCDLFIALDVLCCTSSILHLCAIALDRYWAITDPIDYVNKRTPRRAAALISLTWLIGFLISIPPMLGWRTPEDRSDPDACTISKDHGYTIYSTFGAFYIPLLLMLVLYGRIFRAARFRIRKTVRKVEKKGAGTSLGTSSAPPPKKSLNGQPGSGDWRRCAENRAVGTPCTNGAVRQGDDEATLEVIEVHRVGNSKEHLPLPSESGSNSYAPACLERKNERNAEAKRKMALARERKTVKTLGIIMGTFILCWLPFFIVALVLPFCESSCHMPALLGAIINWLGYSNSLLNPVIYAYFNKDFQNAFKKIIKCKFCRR
Procedure: (§1) Animals: clean grade SD rats, female and male, 250-300 g, purchased from Nanjing QingLongshan animal breeding center.
(§2) Radioligand: [^3H]-8-OH-DPAT, [^3H]-Ketanserin, purchased from PerkinElmer company; 5-HT and Methysergide, purchased from Sigma company.
Preparation of 5-HT1A buffer solution: Tris-HCl buffer solution (0.05M, 1000 ml) is added with certain amount of ascorbic acid, pargyline and CaCl2, to give final concentrations of 0.1%(ascorbic acid), 10 um (pargyline) and 4 mM (CaCl2) separately.
(§3) Preparation of radioligand: 50 μl mother liquor is diluted to 5 ml with anhydrous ethanol, and stocked for use.
(§4) Preparation of non-labeling ligand: appropriate amounts of 5-HT and Methysergide are dissolved in ultrapure water to give solutions with final concentrations of 2*10^−5M respectively.
(§5) Preparation of solutions of various test drugs: appropriate amount of each drug is first diluted to 1 ml with ultrapure water as stock solution. When needed, 10 μl of the stock solution is diluted to 1 ml to reach a level of 10^−5M.
(§6) Rats are decapitated to get the brains. The target tissues (left and right cerebral cortex) are separated on ice, added with 10-fold volume (V/W) of ice-cold buffer, and homogenized with tissue Homogenizer for several seconds 3 times to form tissue homogenate. The tissue homogenate is centrifuged with low temperature superb centrifuge (12000 r/min) 3 times, with each for 20 minutes. The supernatant is discarded and the precipitate (membrane receptor) is stocked in −80° C. ultralow temperature freezer.
(§7) The membrane receptor is added with certain volume of ice-cold buffer and homogenized to make membrane receptor solutions at certain concentrations.
(§8) Various reaction solutions are added in the following sequences and ratios:
(§9) Total binding tube: 100 μl membrane receptor+100 μl buffer+10 μl radioligand
(§10) Non-specific tube: 100 μl membrane receptor+100 μl non-labeling ligand+10 μl radioligand
(§11) Test compound tube: 100 μl membrane receptor+100 μl drug solution+10 μl radioligand
(§12) Above tubes are put in 37° C. water bath immediately after finishing adding radioligand into each of them and then incubated for 25 min. After 25 min, the tubes are put in ice water to quench the reaction. Each tube is poured into suction filtration device to filter, and the filter membrane is washed with 5-10 ml ice-cold buffer twice. The filter membrane is dried in 85° C. oven, and then put into test tubes, and added with certain amount of scintillation liquid to soak overnight. Radioactivity is determined using liquid scintillation counter.
(§13) Each compound is tested in duplicate, and the tests are carried out independently twice.

5-HT2A receptor = molecular target: T2, 5-HT2A receptor (Rattus norvegicus, UniProt P14842); assay: In vitro competitive binding test to 5-HT2A receptor ([3H]-Ketanserin, rat cerebral cortex membranes); conditions: 10 μmol/L compound; hydrochloride salts; rat cerebral cortex membrane; unit (I %); read-out: 5-HT2A affinity [3H]-Ketanserin (inhibition rate of radioligand binding)
T2 construct: The supernatant is discarded and the precipitate (membrane receptor) is stocked; from tissue; host or cells: SD rat cerebral cortex membranes
T2 sequence (P14842 whole entry): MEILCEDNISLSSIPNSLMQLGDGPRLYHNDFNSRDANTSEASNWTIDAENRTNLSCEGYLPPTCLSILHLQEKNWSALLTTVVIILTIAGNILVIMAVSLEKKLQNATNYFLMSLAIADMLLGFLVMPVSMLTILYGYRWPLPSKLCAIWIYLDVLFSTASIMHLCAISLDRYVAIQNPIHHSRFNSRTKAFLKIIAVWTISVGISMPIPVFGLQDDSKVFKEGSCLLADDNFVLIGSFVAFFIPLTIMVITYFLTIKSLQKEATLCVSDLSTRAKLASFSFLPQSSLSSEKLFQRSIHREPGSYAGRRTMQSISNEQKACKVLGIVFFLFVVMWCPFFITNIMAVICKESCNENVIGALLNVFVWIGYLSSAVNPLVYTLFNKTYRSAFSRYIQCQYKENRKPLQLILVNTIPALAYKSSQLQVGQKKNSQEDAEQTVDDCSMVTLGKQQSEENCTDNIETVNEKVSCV
Procedure: as §1, §2
Preparation of 5-HT2A buffer solution: Tris (6.05 g) is dissolved in ultrapure water (1000 ml). PH is adjusted to 7.4 with HCl. Tris-HCl buffer solution (0.05M) is used.
as §3, §4, §5, §6, §7, §8, §9, §10, §11, §12, §13

[2] = Acute toxicity study, single drench to mice (LD50, Bliss method); conditions: mouse, in vivo, oral, hydrochloride
Source text: Bliss method is used for statistics.

[3] = test system: Salmonella typhimurium histidine auxotrophic mutants TA97, TA98, TA100 and TA102; assay: Bacterial reverse mutation test (Ames test); conditions: −S9 and +S9, all dosages
Procedure: Strains: Salmonella typhimurium histidine auxotrophic mutants TA97, TA98, TA100 and TA102.
Results: the experiments include two parts of −S9 and +S9. In the test system without S9, TA98 5000 μg/dish has antibacterial activity, and in the test system with S9, TA97 5000 μg/dish has antibacterial activity. Other dosages have no antibacterial activity to any of the strains, and the growth background is excellent. […] Ames test is negative.

hSERT = hSERT (Homo sapiens, UniProt P31645); assay: In vitro inhibition of serotonin reuptake ([3H]-5-HT) in cells stably expressing hSERT; conditions: for inhibition at 10 µM: read-out: Inhibition rates of SERT reuptake [3H]-5-HT
Chain of hSERT (P31645 whole entry): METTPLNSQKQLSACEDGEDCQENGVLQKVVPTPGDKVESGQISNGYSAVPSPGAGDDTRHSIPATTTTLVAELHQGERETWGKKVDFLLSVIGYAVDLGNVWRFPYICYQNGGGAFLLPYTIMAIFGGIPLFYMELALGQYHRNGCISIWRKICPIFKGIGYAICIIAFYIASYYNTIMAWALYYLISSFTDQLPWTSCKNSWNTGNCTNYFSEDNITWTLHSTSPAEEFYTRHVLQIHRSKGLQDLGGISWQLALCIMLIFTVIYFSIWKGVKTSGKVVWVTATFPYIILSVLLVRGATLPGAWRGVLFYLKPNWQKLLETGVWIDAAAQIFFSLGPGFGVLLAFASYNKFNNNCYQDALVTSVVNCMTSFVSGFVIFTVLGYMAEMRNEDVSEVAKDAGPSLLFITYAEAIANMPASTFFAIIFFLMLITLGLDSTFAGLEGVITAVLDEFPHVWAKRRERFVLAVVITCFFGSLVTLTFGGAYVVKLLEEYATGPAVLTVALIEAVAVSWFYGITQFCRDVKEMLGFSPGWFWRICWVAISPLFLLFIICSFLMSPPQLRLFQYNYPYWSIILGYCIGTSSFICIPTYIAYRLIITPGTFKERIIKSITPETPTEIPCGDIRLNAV
Procedure: Positive control compound: fluoxetine.
Sample treatment: about 1 mg of compound is weighted and added with relative amount of DMSO to prepare 10^−2M stock solution. Before use, the stock solution is diluted with HBSS buffer to relative concentrations. Each sample is dissolved in DMSO completely. The dilution is clear and without obvious cloudy and formation of precipitate after adding with buffer.
(1) Cells which can stably express hSERT are seeded into 24-well plates respectively.
(2) Experiments are started when the cell confluence reaches 80-90%.
(3) Liquids in the plates are discarded, the plates are washed with PBS twice at room temperature.
(5) Plates are incubated at 37° C. for 10 min after slight oscillation.
(6) Then 20 μl radioisotope is added (cpm: about 20000).
(7) Plates are incubated at 37° C. for 5 min after slight oscillation.
(8) Liquids in the plates are discarded, the plates are washed with ice-cold PBS twice, all the liquids in the plates are removed away.
(9) NaOH (2M, 100 μl) is added into each well to lyse the cells. All the lysates are combined and put on GF/C glass fiber filter paper.
(10) The filter papers are dried and put in 0.5 ml centrifuge tube, 500 μl lipid soluble scintillation liquid are added. Radioactivity is determined by MicroBeta liquid scintillation counter. Each concentration is tested intriplicate, and tests are carried out independently twice.
Test concentration is 10 μmol/L. The positive drug provided is set as control (10 μmol/L) in each experiment. The experimental processes are the same as the above process.

Compound	phase I times (leg-raising times) ([1]; 100 mg/kg intragastric) [time]	phase II times (leg-raising times) ([1]; 100 mg/kg intragastric) [time]	inhibition at 10 µM (5-HT1A receptor) [%]	inhibition at 10 µM (5-HT2A receptor) [%]	LD50 [2] [mg/kg]	Ames test (colony reverse mutations) [3]	IC50 (hSERT) [nM]	inhibition effect to 5-HT reuptake compared with fluoxetine (hSERT)	inhibition at 10 µM (hSERT) [%]	phase I times (leg-raising times) ([1]; 40 mg/kg intragastric) [time]	phase I times (leg-raising times) ([1]; 160 mg/kg intragastric) [time]
NCC1(CC(=O)O)CCCCC1 [Gabapentin, gabapentin, reference compound]	11.60 ± 6.75	74.7 ± 39.45									
CN(CCCN1CCN(c2cccc(C(F)(F)F)c2)CC1)c1cccc(C#N)c1 [III-8, 3-(methyl(3-(4-(3-trifluoromethylphenyl)piperazin-1-yl)propyl)amino)benzonitrile]			108	111	1800	negative	246 ± 94	comparable to that of fluoxetine	98.3		
CN(CCCN1CCN(c2cccc(Cl)c2)CC1)c1cccc(C#N)c1 [III-10, 3-((3-(4-(3-chlorophenyl)piperazin-1-yl)propyl)methylamino)benzonitrile]			109	145	1500	negative	138 ± 35	more potent than that of fluoxetine	94.3	21.23 ± 11.24	21.90 ± 15.48
